Measured values reported in PubChem BioAssay AID1159558 (GlaxoSmithKline (GSK), 2015).
The source made the active and inactive calls.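 Rule for the calls: active = IC50 against T. cruzi CYP51 below a set limit; inactive = the rest.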

Target: Sterol 14-alpha demethylase (Trypanosoma cruzi (strain CL Brener)) (UniProt Q7Z1V1)
Assay: T. cruzi sterol 14-alpha demethylase inhibition – biochemical, recombinant enzyme, mechanism study for T. cruzi antiparasitic project, dose response (AID 1159558);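 note: enzyme in bacterial membranes with Anopheles gambiae CYP reductase and cytochrome b5 partners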
Conditions: recombinant T. cruzi CYP51, BOMCC fluorescence

Sterol 14-alpha demethylase (Trypanosoma cruzi (strain CL Brener)), sequence (Q7Z1V1 whole entry, looked up): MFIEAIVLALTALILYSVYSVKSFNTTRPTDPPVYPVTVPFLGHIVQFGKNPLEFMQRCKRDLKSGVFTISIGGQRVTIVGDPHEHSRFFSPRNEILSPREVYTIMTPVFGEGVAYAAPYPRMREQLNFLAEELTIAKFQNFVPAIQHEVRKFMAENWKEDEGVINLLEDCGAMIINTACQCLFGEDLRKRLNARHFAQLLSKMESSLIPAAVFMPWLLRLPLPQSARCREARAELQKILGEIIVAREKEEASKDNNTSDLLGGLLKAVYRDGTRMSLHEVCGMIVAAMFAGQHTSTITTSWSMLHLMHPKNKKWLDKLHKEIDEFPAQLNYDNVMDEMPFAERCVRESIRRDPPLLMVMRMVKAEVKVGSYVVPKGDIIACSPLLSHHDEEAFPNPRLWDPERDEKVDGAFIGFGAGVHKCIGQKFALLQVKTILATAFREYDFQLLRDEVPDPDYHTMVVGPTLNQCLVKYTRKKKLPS

Row | SMILES | IC50
1 | CC(C)(C)C(=O)Nc1cc(C2CC2)nn1-c1nc2c(c(=O)[nH]1)CCCC2 | > 100 µM (inactive)
2 | NC(=O)c1ncccc1Nc1nc(NC2CCC(O)CC2)ncc1Br (configuration not stated) | > 100 µM (inactive)
3 | O=C(NCc1ccc(Cl)cc1)C1CN(C(=O)c2ccc(F)cc2)CCS1 (configuration not stated) | 13 µM
4 | Cc1nn(-c2nc3ccccc3s2)c2c1C(c1ccc(OCC(N)=O)cc1)SCC(=O)N2 (configuration not stated) | > 100 µM (inactive)
5 | COc1cccc(CCNC(=O)C(c2cn[nH]c2)N2CCN(c3ccc(Cl)cc3)CC2)c1 (configuration not stated) | 0.063 µM
6 | Nc1nccc(-c2csc(Nc3ccc(Cl)cc3)n2)n1 | 1.3 µM
7 | COc1ccc(-c2cc(C)no2)cc1S(=O)(=O)Nc1ccc(F)c(Cl)c1 | > 100 µM (inactive)
8 | C[C@@H](Oc1cc(-n2cnc3ccc(O[C@H]4CCNC4)cc32)sc1C(N)=O)c1ccccc1Cl | 1.3 µM
9 | COc1ccc(NS(=O)(=O)c2cc(NC(=O)c3ccc([N+](=O)[O-])s3)ccc2OC)cc1 | 1 µM
10 | COc1ccc(CN2C(=O)C(O)(CC(=O)c3ccncc3)c3cc(Br)ccc32)cc1OC (configuration not stated) | 0.5 µM
11 | COc1cc(F)c2ncc(F)c(CCN3CC[C@H](NCc4cc5c(cn4)OCS5)[C@@H](O)C3)c2c1 | 32 µM
12 | O=C(Cc1ccc2c(c1)CCC2)Nc1n[nH]c(-c2ccccn2)n1 | 2.5 µM
13 | COc1ccc(-c2cnc(NC(=O)c3cc(-c4ccccn4)n[nH]3)n2C)cc1 | 16 µM
14 | CCCN(Cc1ccc(OC)c(OC)c1)Cc1cc(=O)c2c(C)cc(C)cc2[nH]1 | > 100 µM (inactive)
15 | NS(=O)(=O)c1ccc(Nc2nccc(-c3cnn4ncccc34)n2)cc1 | > 100 µM (inactive)
16 | c1ccc(CNc2cccc3ccncc23)cc1 | 0.1 µM
17 | CC(=O)Nc1ccc(-c2cnc(N)c(-c3nc4ccc(F)cc4[nH]3)c2)cc1 | 63 µM
18 | O=C(NCCc1csc(-c2ccc(F)cc2)n1)c1cccs1 | 25 µM
19 | CCOc1ccc(Nc2ccc(S(=O)(=O)N3CCN(C)CC3)cc2[N+](=O)[O-])cc1OCC | 32 µM
20 | Cc1ccccc1NS(=O)(=O)c1ccc2[nH]cc(C(=O)NC3CCCCC3)c(=O)c2c1 | 10 µM
21 | CN(Cc1nc2c(C(=O)N3CCN(Cc4ccccc4)CC3)cccc2[nH]1)C1CCCc2cccnc21 (configuration not stated) | 40 µM
22 | COc1cc(NC(=O)Nc2cccc(CNC(=O)OC3CCCCC3)c2)ccc1-c1cnco1 | 25 µM
23 | Cc1ccnc(NS(=O)(=O)c2ccc(NC(=O)c3ccc([N+](=O)[O-])s3)cc2)n1 | 63 µM
24 | CS(=O)(=O)c1ccc(CC(=O)Nc2nc(-c3ccc(Cl)s3)cs2)cc1 | > 100 µM (inactive)
25 | c1ccc(CCNCc2cncc3nc(-c4cnccn4)n(C4CCCCC4)c23)cc1 | 0.1 µM
26 | O=S(=O)(c1ccccc1C(F)(F)F)N1CCN(Cc2ccc(-n3ccnc3)cc2)CC1 | 0.1 µM

Row | SMILES | IC50
27 | CCCCN(C(=O)c1ccc(NC(=O)C(C)C)cc1)c1ccccc1 | 13 µM
28 | Cc1ccc(C)c(-n2nnnc2Sc2nc([N+](=O)[O-])nn2C)c1 | > 100 µM (inactive)
29 | Cc1[nH]n2c(=O)c3c(nc2c1-c1ccc(F)cc1)CCCC3 | > 100 µM (inactive)
30 | N#Cc1ccccc1S(=O)(=O)N1CCN(C(=O)CNC(=O)c2ccc3c(c2)OCO3)CC1 | 79 µM
31 | Cc1cc(N(C)C)nc(Nc2ccccc2C)n1 | > 100 µM (inactive)
32 | OCC1CCCCN1c1cc(-c2ccccn2)nc(Nc2ccccc2)n1 (configuration not stated) | 79 µM
33 | CC(C)Nc1nc(Cl)nc2ccccc12 | > 100 µM (inactive)
34 | CCN(CC)c1ncc(C(=O)c2ccc([N+](=O)[O-])o2)s1 | 40 µM
35 | Nc1nc(-c2ccccn2)nc(-n2nc(-c3ccccc3)cc2N)n1 | > 100 µM (inactive)
36 | Cc1ccc(Nc2nc(N)nc(CNC(c3nc4ccccc4[nH]3)C(C)C)n2)cc1 (configuration not stated) | 50 µM
37 | Cc1ccccc1NS(=O)(=O)c1ccc2[nH]cc(C(=O)NC3CCCC3)c(=O)c2c1 | 13 µM
38 | CC(=O)Nc1ccc(-c2noc(CC3CCCN(Cc4cccc(F)c4C)C3)n2)cc1 (configuration not stated) | > 100 µM (inactive)
39 | O=C(Nc1cccc(Cl)c1)Nc1ccc([N+](=O)[O-])cc1Cl | 5 µM
40 | CCC(=O)N1N=C(c2ccc3c(c2)CCCC3)Sc2c1ncn2C(=O)CC | > 100 µM (inactive)
41 | COc1cc(OC)cc(C(NS(=O)(=O)c2ccc(Cl)c(C(F)(F)F)c2)c2nccn2C)c1 (configuration not stated) | 32 µM
42 | CC1CCCCN1C(=O)NCCc1coc(-c2ccc(F)cc2)n1 (configuration not stated) | > 100 µM (inactive)
43 | O=C(CSc1ccc(F)cc1)N[C@@H](Cc1cnc[nH]1)C(=O)NCCc1ccccc1 | 0.079 µM
44 | N#Cc1cc(-c2ccnc(Nc3cccc(CN4CCOCC4)c3)n2)ccc1NCCN | 32 µM
45 | Cc1ccc(S(=O)(=O)Nc2ccc(CN3CCN(C(=O)c4cccc(C#N)c4)CC3)cc2)cc1 | > 100 µM (inactive)
46 | Cn1nc([N+](=O)[O-])nc1Oc1ccc(C(=O)c2ccccc2)cc1 | > 100 µM (inactive)
47 | C=CCn1nc([N+](=O)[O-])nc1Oc1ccc(Cl)cc1Cl | 20 µM
48 | CC(=O)Nc1cccc(Nc2ncnc3nc[nH]c23)c1 | > 100 µM (inactive)
49 | N#Cc1c(Oc2cccc(Cl)c2)cccc1[N+](=O)[O-] | > 100 µM (inactive)
50 | Cc1nc2c(-c3nc(-c4ccc(N)cc4)n[nH]3)cccn2c1C | > 100 µM (inactive)
51 | CN(Cc1cc2ccccc2s1)c1ncc2c(N)nc(N)nc2n1 | > 100 µM (inactive)
52 | COc1ccc(C2C3CCCCC3(O)CCN2CC(=O)Nc2ccc(Cl)cc2Cl)cc1 (configuration not stated) | 10 µM

Row | SMILES | IC50
53 | COc1cccc2sc(CN(C)C(=O)C3CNCCN3c3ccc(F)cc3)c(C)c12 (configuration not stated) | 0.25 µM
54 | COc1ccc(-c2cnc(C)o2)cc1S(=O)(=O)Nc1ccc(C)cc1C | 25 µM
55 | C=CC[C@@H]1CC=C[C@@H](C)N1C(=O)CCc1nnc(-c2ccc3c(c2)OCO3)o1 | 40 µM
56 | Cc1cc(C)c(C#N)c(SCC(=O)c2ccc3c(c2)OCO3)n1 | > 100 µM (inactive)
57 | N#Cc1ccc(S(=O)(=O)N2CCN(Cc3cccc(-c4ccncc4)c3)CC2)cc1 | 0.079 µM
58 | CN(Cc1cccnc1)Cc1ccc(N2CCN(C(=O)C3(c4ccc(Cl)cc4)CC3)CC2)nc1 | 0.16 µM
59 | Cc1cc2ncn(-c3ccc([N+](=O)[O-])cc3C#N)c2cc1C | > 100 µM (inactive)
60 | COc1ccc(-c2cc(C)no2)cc1S(=O)(=O)Nc1ccc(C)c(C)c1 | 16 µM
61 | O=C(CN(Cc1ccccn1)Cc1ccccn1)NC1Cc2ccccc2C1 | 79 µM
62 | COc1ncc(-c2ccc3ncnc(N4CCOCC4)c3c2)cc1NS(C)(=O)=O | 40 µM
63 | c1ccc2c(CCOc3nccnc3-c3ccncc3)c[nH]c2c1 | 0.063 µM
64 | CS(=O)(=O)N1CCC(Nc2ncc(Br)c(Nc3cccc(F)c3C(N)=O)n2)CC1 | > 100 µM (inactive)
65 | c1cc(-c2ncc(-c3ccn[nH]3)s2)ccn1 | 0.04 µM
66 | COc1ccccc1C=CCN1C[C@H]2CCC[C@@H](C1)C2(O)c1cccnc1 (some centres not stated) | 0.13 µM
67 | CNC(=O)C1Cc2ccccc2N1C(=O)Cc1ccc(F)cc1 (configuration not stated) | > 100 µM (inactive)
68 | CNc1cc(C)nc(C2CN(C(=O)c3n[nH]c4ccccc34)CCO2)c1 (configuration not stated) | > 100 µM (inactive)
69 | O=[N+]([O-])c1cccc(Nc2cncc(-c3ccccc3CO)c2)c1 | 3.2 µM
70 | O=c1[nH]c(C=Cc2cccc(OCCOc3ccccc3)c2)nc(O)c1[N+](=O)[O-] | > 100 µM (inactive)
71 | O=[N+]([O-])c1ccc(-c2nnn(-c3ccc(Cl)cc3)n2)o1 | > 100 µM (inactive)
72 | O=S(=O)(NCC(c1cccnc1)N1CCN(c2ccccc2F)CC1)c1ccc(F)cc1 (configuration not stated) | 0.079 µM
73 | CNc1nc(C)nc(N2CCc3cc(C(=O)NCc4ccc(-c5nccn5C)cc4Cl)ccc32)n1 | 1.6 µM
74 | COc1ccc(C(=O)Nc2c(C)nn(COc3cccc(C(F)(F)F)c3)c2C)cc1 | 13 µM
75 | O=C(Nc1ccccc1C(=O)Nc1ccccn1)c1ccco1 | > 100 µM (inactive)
76 | COc1cc(-c2noc(CC#N)n2)ccc1OC(F)F | 100 µM
77 | CCOc1ccc2nc(NC(=O)c3ccc([N+](=O)[O-])s3)sc2c1 | > 100 µM (inactive)
78 | CCn1nccc1CN(C)C(=O)C=Cc1ccc(Cl)cc1 | 0.32 µM

Row | SMILES | IC50
79 | Cc1c(Nc2cc(C3CC3)[nH]n2)ccc(C#N)c1Cl | 20 µM
80 | O=C(CCCn1cnc([N+](=O)[O-])n1)Nc1cccc(Cl)c1 | 50 µM
81 | Cc1cc(NC(=O)C2CC2)ccc1OC1CCN(Cc2ccco2)CC1 | 63 µM
82 | Cc1sc(C)c(C(F)(F)F)c1CNCCCNc1cc(=O)c2ccccc2[nH]1 | 20 µM
83 | CC1CCCN(S(=O)(=O)c2ccc(C(=O)Nc3nc(-c4ccccn4)cs3)cc2)C1 (configuration not stated) | 2.5 µM
84 | CN(C)S(=O)(=O)c1cccc(C(=O)Nc2nc(-c3ccccn3)cs2)c1 | 32 µM
85 | O=C(Nc1ccc(C(=O)N2CCCC2c2ccc3c(c2)OCCCO3)cc1)c1ccco1 (configuration not stated) | 63 µM
86 | COc1ccc(CN2CCCCC2c2nc(-c3cccnc3)no2)cc1 (configuration not stated) | 0.2 µM
87 | O=C1OCc2ccc(Nc3nccc(-c4cnn5ncccc45)n3)cc21 | > 100 µM (inactive)
88 | N#Cc1cccc(CN2CCC(c3nc(-c4ccc(C(F)(F)F)nc4)no3)CC2)c1 | > 100 µM (inactive)
89 | Cc1ccc2ccc(C(Nc3ccccn3)c3cccnc3)c(O)c2n1 (configuration not stated) | 0.05 µM
90 | O=C(Nc1ncc([N+](=O)[O-])s1)C1CC1 | > 100 µM (inactive)
91 | Cc1ccc(C)c(CN2C(=O)NC3(CCc4ccccc43)C2=O)c1 (configuration not stated) | 40 µM
92 | COc1ccc(Nc2nccc(N(C)c3n[nH]c4c(F)cccc34)n2)cc1S(C)(=O)=O | 32 µM
93 | CCCN1CCN(Cc2ccc(S(=O)(=O)Nc3cccc(C)c3)cc2)CC1 | > 100 µM (inactive)
94 | Cc1cc(Oc2cc(Cl)c(Cl)cc2Cl)n2ncnc2n1 | > 100 µM (inactive)
95 | Cc1[nH]n2c(=O)c3c(nc2c1-c1ccc(Cl)cc1)CCCC3 | > 100 µM (inactive)
96 | O=C(CN1CCC2(O)CCCCC2C1c1ccc2c(c1)OCO2)Nc1ccc(Cl)cc1Cl (configuration not stated) | 13 µM
97 | c1cncc(CN(Cc2ccco2)Cc2cn[nH]c2-c2cccs2)c1 | 0.079 µM
98 | Cc1[nH]nc2c1C(c1ccc(OCc3ccccc3F)cc1)SCC(=O)N2 (configuration not stated) | > 100 µM (inactive)
99 | C=CCOCC1Cn2nc([N+](=O)[O-])nc2O1 (configuration not stated) | > 100 µM (inactive)
100 | O=C(NCCc1ccccn1)C(c1cn[nH]c1)N1CCN(c2ccc(Cl)c(Cl)c2)CC1 (configuration not stated) | 0.13 µM
101 | CCOc1cc(NCCCN2CCN(C)CC2)c2ncccc2c1 | > 100 µM (inactive)
102 | O=c1ccc2ccc(F)c3c2n1C[C@H]3CN1CCC(NCc2cc3ccccc3o2)CC1 | 32 µM
